{"source": "PubChem BioAssay (NCI)", "note": "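Compound exposure: 48 hours, 5 concentrations, 96-well plates. TGI is the concentration that stops growth completely.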"}
{"test_system": "786-0 renal", "assay": "NCI anticancer screen, dose series, 48 h", "units": {"TGI": "µM"}}
{"smiles": "C=C(C)C(=O)OC1C/C(CO)=C\\C(O)C/C(C)=C/C2OC(=O)C(=C)C21", "note": "(stereo not given)", "TGI": 37.1}
{"smiles": "COc1cc2ccnc([C@@H](OC(=O)c3ccccc3)c3ccc(OC)c(OC)c3OC)c2cc1OC", "TGI": "> 100"}
{"smiles": "O=C(O)CCNCCCNCCC(=O)O", "TGI": "> 100"}
{"smiles": "CN(C)N=Nc1ccc(C(N)=O)cc1", "TGI": "> 100"}
{"test_system": "A498 renal", "assay": "NCI anticancer screen, dose series, 48 h", "units": {"TGI": "µM"}}
{"smiles": "COc1cc2ccnc([C@@H](OC(=O)c3ccccc3)c3ccc(OC)c(OC)c3OC)c2cc1OC", "TGI": "> 100"}
{"smiles": "O=C(O)CCNCCCNCCC(=O)O", "TGI": "> 100"}
{"smiles": "CN(C)N=Nc1ccc(C(N)=O)cc1", "TGI": "> 100"}
{"test_system": "A549 NSCLC", "assay": "NCI anticancer screen, dose series, 48 h", "units": {"TGI": "µM"}}
{"smiles": "C=C(C)C(=O)OC1C/C(CO)=C\\C(O)C/C(C)=C/C2OC(=O)C(=C)C21", "note": "(stereo not given)", "TGI": "> 100"}
{"smiles": "COc1cc2ccnc([C@@H](OC(=O)c3ccccc3)c3ccc(OC)c(OC)c3OC)c2cc1OC", "TGI": "> 100"}
{"smiles": "O=C(O)CCNCCCNCCC(=O)O", "TGI": "> 100"}
{"smiles": "CN(C)N=Nc1ccc(C(N)=O)cc1", "TGI": "> 100"}
{"test_system": "ACHN renal", "assay": "NCI anticancer screen, dose series, 48 h", "units": {"TGI": "µM"}}
{"smiles": "C=C(C)C(=O)OC1C/C(CO)=C\\C(O)C/C(C)=C/C2OC(=O)C(=C)C21", "note": "(stereo not given)", "TGI": 48.4}
{"smiles": "COc1cc2ccnc([C@@H](OC(=O)c3ccccc3)c3ccc(OC)c(OC)c3OC)c2cc1OC", "TGI": "> 100"}
{"smiles": "O=C(O)CCNCCCNCCC(=O)O", "TGI": "> 100"}
{"smiles": "CN(C)N=Nc1ccc(C(N)=O)cc1", "TGI": "> 100"}
{"test_system": "CAKI-1 renal", "assay": "NCI anticancer screen, dose series, 48 h", "units": {"TGI": "µM"}}
{"smiles": "C=C(C)C(=O)OC1C/C(CO)=C\\C(O)C/C(C)=C/C2OC(=O)C(=C)C21", "note": "(stereo not given)", "TGI": 58.7}
{"smiles": "COc1cc2ccnc([C@@H](OC(=O)c3ccccc3)c3ccc(OC)c(OC)c3OC)c2cc1OC", "TGI": "> 100"}
{"smiles": "O=C(O)CCNCCCNCCC(=O)O", "TGI": "> 100"}
{"smiles": "CN(C)N=Nc1ccc(C(N)=O)cc1", "TGI": "> 100"}
{"test_system": "CCRF-CEM leukemia", "assay": "NCI anticancer screen, dose series, 48 h", "units": {"TGI": "µM"}}
{"smiles": "C=C(C)C(=O)OC1C/C(CO)=C\\C(O)C/C(C)=C/C2OC(=O)C(=C)C21", "note": "(stereo not given)", "TGI": 36.6}
{"smiles": "COc1cc2ccnc([C@@H](OC(=O)c3ccccc3)c3ccc(OC)c(OC)c3OC)c2cc1OC", "TGI": "> 100"}
{"smiles": "O=C(O)CCNCCCNCCC(=O)O", "TGI": "> 100"}
{"smiles": "CN(C)N=Nc1ccc(C(N)=O)cc1", "TGI": "> 100"}
{"test_system": "COLO 205 colon", "assay": "NCI anticancer screen, dose series, 48 h", "units": {"TGI": "µM"}}
{"smiles": "C=C(C)C(=O)OC1C/C(CO)=C\\C(O)C/C(C)=C/C2OC(=O)C(=C)C21", "note": "(stereo not given)", "TGI": 38.3}
{"smiles": "COc1cc2ccnc([C@@H](OC(=O)c3ccccc3)c3ccc(OC)c(OC)c3OC)c2cc1OC", "TGI": "> 100"}
{"smiles": "O=C(O)CCNCCCNCCC(=O)O", "TGI": "> 100"}
{"smiles": "CN(C)N=Nc1ccc(C(N)=O)cc1", "TGI": "> 100"}
{"test_system": "DLD-1 colon", "assay": "NCI anticancer screen, dose series, 48 h", "units": {"TGI": "µM"}}
{"smiles": "COc1cc2ccnc([C@@H](OC(=O)c3ccccc3)c3ccc(OC)c(OC)c3OC)c2cc1OC", "TGI": 80.2}
{"smiles": "O=C(O)CCNCCCNCCC(=O)O", "TGI": "> 100"}
{"smiles": "CN(C)N=Nc1ccc(C(N)=O)cc1", "TGI": "> 100"}
{"test_system": "DMS 114 small cell lung", "assay": "NCI anticancer screen, dose series, 48 h", "units": {"TGI": "µM"}}
{"smiles": "C=C(C)C(=O)OC1C/C(CO)=C\\C(O)C/C(C)=C/C2OC(=O)C(=C)C21", "note": "(stereo not given)", "TGI": 60.8}
{"smiles": "COc1cc2ccnc([C@@H](OC(=O)c3ccccc3)c3ccc(OC)c(OC)c3OC)c2cc1OC", "TGI": "> 100"}
{"smiles": "O=C(O)CCNCCCNCCC(=O)O", "TGI": "> 100"}
{"smiles": "CN(C)N=Nc1ccc(C(N)=O)cc1", "TGI": "> 100"}
{"test_system": "DMS 273 small cell lung", "assay": "NCI anticancer screen, dose series, 48 h", "units": {"TGI": "µM"}}
{"smiles": "C=C(C)C(=O)OC1C/C(CO)=C\\C(O)C/C(C)=C/C2OC(=O)C(=C)C21", "note": "(stereo not given)", "TGI": "> 100"}
{"smiles": "O=C(O)CCNCCCNCCC(=O)O", "TGI": "> 100"}
{"smiles": "CN(C)N=Nc1ccc(C(N)=O)cc1", "TGI": "> 100"}
{"test_system": "EKVX NSCLC", "assay": "NCI anticancer screen, dose series, 48 h", "units": {"TGI": "µM"}}
{"smiles": "C=C(C)C(=O)OC1C/C(CO)=C\\C(O)C/C(C)=C/C2OC(=O)C(=C)C21", "note": "(stereo not given)", "TGI": 69.1}
{"smiles": "COc1cc2ccnc([C@@H](OC(=O)c3ccccc3)c3ccc(OC)c(OC)c3OC)c2cc1OC", "TGI": "> 100"}
{"smiles": "O=C(O)CCNCCCNCCC(=O)O", "TGI": "> 100"}
{"smiles": "CN(C)N=Nc1ccc(C(N)=O)cc1", "TGI": "> 100"}
{"test_system": "HCC-2998 colon", "assay": "NCI anticancer screen, dose series, 48 h", "units": {"TGI": "µM"}}
{"smiles": "COc1cc2ccnc([C@@H](OC(=O)c3ccccc3)c3ccc(OC)c(OC)c3OC)c2cc1OC", "TGI": "> 100"}
{"smiles": "O=C(O)CCNCCCNCCC(=O)O", "TGI": "> 100"}
{"smiles": "CN(C)N=Nc1ccc(C(N)=O)cc1", "TGI": "> 100"}
{"test_system": "HCT-116 colon", "assay": "NCI anticancer screen, dose series, 48 h", "units": {"TGI": "µM"}}
{"smiles": "C=C(C)C(=O)OC1C/C(CO)=C\\C(O)C/C(C)=C/C2OC(=O)C(=C)C21", "note": "(stereo not given)", "TGI": 37.1}
{"smiles": "COc1cc2ccnc([C@@H](OC(=O)c3ccccc3)c3ccc(OC)c(OC)c3OC)c2cc1OC", "TGI": "> 100"}
{"smiles": "O=C(O)CCNCCCNCCC(=O)O", "TGI": "> 100"}
{"smiles": "CN(C)N=Nc1ccc(C(N)=O)cc1", "TGI": "> 100"}
{"test_system": "HCT-15 colon", "assay": "NCI anticancer screen, dose series, 48 h", "units": {"TGI": "µM"}}
{"smiles": "C=C(C)C(=O)OC1C/C(CO)=C\\C(O)C/C(C)=C/C2OC(=O)C(=C)C21", "note": "(stereo not given)", "TGI": 29.6}
{"smiles": "COc1cc2ccnc([C@@H](OC(=O)c3ccccc3)c3ccc(OC)c(OC)c3OC)c2cc1OC", "TGI": "> 100"}
{"smiles": "O=C(O)CCNCCCNCCC(=O)O", "TGI": "> 100"}
{"smiles": "CN(C)N=Nc1ccc(C(N)=O)cc1", "TGI": "> 100"}
{"test_system": "HL-60(TB) leukemia", "assay": "NCI anticancer screen, dose series, 48 h", "units": {"TGI": "µM"}}
{"smiles": "COc1cc2ccnc([C@@H](OC(=O)c3ccccc3)c3ccc(OC)c(OC)c3OC)c2cc1OC", "TGI": "> 100"}
{"smiles": "O=C(O)CCNCCCNCCC(=O)O", "TGI": "> 100"}
{"smiles": "CN(C)N=Nc1ccc(C(N)=O)cc1", "TGI": "> 100"}
